The values below come from patent US6656690B2, “Mass spectrometric methods for biomolecular screening” (priority 1998, dated 2003).

The target in one assay is 16S A site 27mer RNA. As to the kind of experiment: ESI-FTICR mass spectrometric (MASS) binding assay, 16S A-site 27-mer RNA model. Further details: species or system prokaryotic. The method, then:
(§1) The ESI-FTICR mass spectrum depicted in FIG. 26 was acquired from a […] mixture of untagged 16S and tagged 18S in the presence of an equimolar mixture of five aminoglycosides. It is to be understood that other biomolecules may be used in place of the aminoglycosides. The aminoglycosides have been selected from two classes of 2-deoxystreptamines: 4,5-disubstituted (paromomycin, and lividomycin), and 4,6-disubstituted (tobramycin, sisomicin, and bekanamycin), present at 500 nM each. Complexes corresponding to 1:1 binding of individual aminoglycosides were observed between 16S and all members of the aminoglycoside mixture, with the apparent affinities estimated from the abundances of the respective complexes differing substantially. Signal intensities from the complexes with paromomycin (m/z 1925.572) and lividomycin (m/z 1954.790) are consistent with MS-measured dissociation constants of 110 nM and 28 nM, respectively. The intensities of 16S complexes with tobramycin (m/z 1895.960), bekanamycin (m/z 1899.171), and sisomicin (m/z 1891.972) were reduced, consistent with solution dissociation constants of […]. Wang, et al., Biochemistry, 1997, 36, 768-779. […] The spectrum is calibrated using multiple isotope peaks of the (M-5H^+)^5− and (M-4H^+)^4− charge states of the free RNA as internal mass standards which brackets the m/z range in which complexes are observed. The average mass measurement error obtained for the complexes in FIG. 26 is 2.1 ppm when m/z differences are measured between the most abundant (4 ^13C) isotope peak of 16S and each complex. This post calibration scheme is easily automated which enables rapid, high precision mass measurements of affinity selected ligands against multiple targets in a high throughput mode.
A preferred first step of MASS screening involves mixing the RNA target (or targets) with a combinatorial library of ligands designed to bind to a specific site on the target molecule(s). Specific noncovalent complexes formed in solution between the target(s) and any library members are transferred into the gas phase and ionized by ESI. As described herein, from the measured mass difference between the complex and the free target, the identity of the binding ligand can be determined. The dissociation constant of the complex can be determined in two ways: if a ligand with a known binding affinity for the target is available, a relative Kd can be measured by using the known ligand as an internal control and measuring the abundance of the unknown complex to the abundance of the control, alternatively, if no internal control is available, Kd's can be determined by making a series of measurements at different ligand concentrations and deriving a Kd value from the “titration” curve.
Electrospray ionization Fourier transform ion cyclotron resonance mass spectrometry was performed on a solution containing […] 16S RNA (the 27-mer construct shown in FIG. 24) and 500 nM paromomycin is depicted in FIG. 13. A 1:1 complex was observed between the paromomycin and the RNA consistent with specific aminoglycoside binding at the A-site. The insets show the measured and calculated isotope envelopes of the (M-5H+)5− species of the free RNA and the RNA-paromomycin complex. High precision mass measurements were acquired using isotope peaks of the (M-5H+)^5− and (M-4H^+)^4− charge states of the free RNA as internal mass standards and measuring the m/z difference between the free and bound RNA.
ESI-MS measurements of a solution containing a fixed concentration of RNA at different concentrations of ligand were obtained. By measuring the ratio of bound:unbound RNA at varying ligand concentrations, the Kd was determined by 1/slope of the “titration curve”. The MS derived value of 110 nM is in good agreement with previously reported literature value of 200 nM. […]

The test system of a further assay is 18S A site model. As to the kind of experiment: ESI-FTICR mass spectrometric (MASS) binding assay, mass-tagged 18S A-site 27-mer RNA model. The conditions noted are these: aminoglycosides 500 nM each, mixture with untagged 16S and tagged 18S. Further details: species or system eukaryotic. The procedure:
as §1, with “The” for “The spectrum is calibrated using multiple isotope peaks of the (M-5H^+)^5− and (M-4H^+)^4− charge states of the free RNA as internal mass standards which brackets the m/z range in which complexes are observed. The”, “This post calibration scheme is easily automated which enables rapid, high precision mass measurements of affinity selected ligands against multiple targets in a high throughput mode.” left out

Assay [1] has as its target prokaryotic 16S rRNA (the A-site). Particulars: cited from earlier work.

Each structure is given as a SMILES string. Where two headings read alike, the source gives them in different places.

For `NC[C@@H]1O[C@H](O[C@H]2[C@@H](O)[C@H](O[C@@H]3[C@@H](O)[C@H](N)C[C@H](N)[C@H]3O[C@H]3O[C@H](CO)[C@@H](O)[C@H](O)[C@H]3N)O[C@@H]2CO)[C@H](N)[C@@H](O)[C@@H]1O` [paromomycin], the Kd at 16S A site 27mer RNA (ESI-FTICR MS, 16S A site 27mer, read-out: MS-measured dissociation constant (KD)) was 110 nM; in assay [1] (16S A-site, previously reported, listed as Paromomycin, read-out: literature / solution KD), about 200 nM; in assay [1] (16S A-site, previously reported, read-out: literature / solution KD), 200 nM; in assay [1] (Recht 1996, Wong 1998, Wang 1997, read-out: reported kD values), about 200 nM; in assay [1] (test 27-mer RNA, known from other experiments or literature, read-out: binding affinity) it was about 1000 nM. In addition, the “complexes observed with 16S (in words)” value with 16S A site 27mer RNA (aminoglycosides 500 nM each, mixture with untagged 16S and tagged 18S) was 1:1 complex and High affinity complexes. The “complexes observed with 18S (in words)” value with 18S A site model was “complete absence of complexes”.
